# Patent publication US9302967B2, “Substituted cathechols as inhibitors of IL-4 and IL-5 for the treatment of bronchial asthma” (Council of Scientific & Industrial Research, priority 2011, dated 2016)
# Where two headings read alike, the source gives them in different places.
# Key:
# [1] = test system: OVA specific IgE; assay: OVA-specific IgE levels in sera by ELISA, OVA mouse model; assay type: in vivo, BALB/c mice; details: 10 mg/kg vs OVA/OVA/VEH
# Procedure: Mice were sensitized with 0.2 ml PBS containing 50 μg ovalbumin (OVA) (Sigma, USA) and 4 mg aluminum hydroxide in saline intraperitonially (i.p.) on days 0, 7 and 14 as shown in FIG. 1. Sham group mice were sensitized with only alum dissolved in PBS. From day 18 to 27, mice were exposed to aerosol of OVA (3%) inhalation 25 minutes daily in a Plexiglas chamber (20×20×10 cm^3). The aerosol was generated by a nebulizer (OMRON CX model) with an airflow rate of 9 L/minute. Sham group mice were challenged with PBS alone.
# Compound 1 of formula I was dissolved in 50% ethanol. So 50% ethanol was used as a vehicle. Group I was alum sensitized, saline challenged and treated with vehicle (SHAM/SAL/VEH), group II was OVA sensitized, OVA challenged and treated with 50% ethanol as vehicle (OVA/OVA/VEH), group III, IV, V, VI were OVA sensitized, OVA challenged and treated with 0.05, 0.1, 5 and 10 mg/kg compound 1 of formula I. Drug was given in the volume of 10 μl orally twice per day. […]
# OVA-specific IgE levels in sera were measured by enzyme linked immunosorbent assay (ELISA) as described previously with little modification (Inflam. Res. 2003, 52, 101-106). Absorbance values at 450 nm were converted to arbitrary values by multiplying with 100. IL-4 levels in lung homogenates were measured by ELISA method as per manufacturer's instructions (BD Pharmingen, USA). […]
# [2] = test system: 3T3 cells; assay: In vitro cytotoxicity by NRU method, predicted acute oral LD50; assay type: cell-based; details: derived from in vitro cytotoxicity
# Procedure: (§1) Earlier, LD50 of ICB 14 C6 was derived from in vitro cytotoxicity assay by NRUmethod in 3T3 cells. […] For 90d sub-chronic toxicity study the highest dose selected was one-fourth of the limit dose. Four different doses of ICB14 C6 (47, 23, 12 and 0 [vehicle] mg/kg body weight) were prepared in ground nut oil daily for 5 days a week for 90d.
# [3] = In vivo acute oral LD50
# [4] = mouse, in vivo
# Procedure: as §1
# Compound 1 of formula I was administered by oral gavage in water using blunt ended steel canula.
# On each working day, all mice were inspected and observations recorded. All the mice were weighed weekly.
# From the day of administering the drug, 30 min cage side observation of the animals were performed every day (5 days a week) till the day of sacrifice. No signs and symptoms of restlessness, perinasal wetness and rapid rate of respiration were observed post administration. […] On the 12th week we found the mouse in a shrunken state as it was kept in the deep freezer.
# [5] = mouse, in vivo; remark: listed apart in the source
# Procedure: as §1
# Blood samples were taken from the retro-orbital sinus on day 91 for hematological and clinical chemistry analyses. Clinical analysis included serum creatinine, serum gammaGT, serum uric acid, serum glucose, serum protein, serum bilirubin, serum GOT/AST and serum GPT/ALT. Hematology including white blood cell count was analyzed with the help of Automatic Hematology Analyzer (Medonic).
# The blood left after the hematological studies were allowed to clot for 2 h and serum separated by centrifugation at 3000 rpm for 5 min and subsequently used for clinical biochemistry using kits from Spinreact S.A. (Girona, Spain). Procedural details given in the technical bulletin were followed for the measurement of different serum parameters.
# [6] = target: COX-1 (Homo sapiens, UniProt P23219); details: cited from earlier work
# Sequence of COX-1 (P23219 24-599): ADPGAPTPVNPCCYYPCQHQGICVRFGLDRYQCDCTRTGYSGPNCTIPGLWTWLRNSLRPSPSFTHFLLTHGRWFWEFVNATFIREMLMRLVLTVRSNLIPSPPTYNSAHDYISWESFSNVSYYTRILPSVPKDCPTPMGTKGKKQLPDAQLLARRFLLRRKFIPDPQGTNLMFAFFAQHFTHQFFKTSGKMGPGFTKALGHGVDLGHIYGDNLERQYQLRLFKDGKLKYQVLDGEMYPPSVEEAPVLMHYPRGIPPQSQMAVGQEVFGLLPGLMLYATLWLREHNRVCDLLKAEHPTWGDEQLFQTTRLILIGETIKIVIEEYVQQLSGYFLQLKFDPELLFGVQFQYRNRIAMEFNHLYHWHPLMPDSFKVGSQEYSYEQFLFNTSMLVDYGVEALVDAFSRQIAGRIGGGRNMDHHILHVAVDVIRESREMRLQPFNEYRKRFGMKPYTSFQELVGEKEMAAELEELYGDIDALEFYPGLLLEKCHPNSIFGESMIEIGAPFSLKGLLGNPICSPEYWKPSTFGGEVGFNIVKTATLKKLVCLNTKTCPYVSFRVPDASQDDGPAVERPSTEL
# [7] = target: T1, COX-2 (Homo sapiens, UniProt P35354); details: cited from earlier work
# T1 sequence (P35354 18-604): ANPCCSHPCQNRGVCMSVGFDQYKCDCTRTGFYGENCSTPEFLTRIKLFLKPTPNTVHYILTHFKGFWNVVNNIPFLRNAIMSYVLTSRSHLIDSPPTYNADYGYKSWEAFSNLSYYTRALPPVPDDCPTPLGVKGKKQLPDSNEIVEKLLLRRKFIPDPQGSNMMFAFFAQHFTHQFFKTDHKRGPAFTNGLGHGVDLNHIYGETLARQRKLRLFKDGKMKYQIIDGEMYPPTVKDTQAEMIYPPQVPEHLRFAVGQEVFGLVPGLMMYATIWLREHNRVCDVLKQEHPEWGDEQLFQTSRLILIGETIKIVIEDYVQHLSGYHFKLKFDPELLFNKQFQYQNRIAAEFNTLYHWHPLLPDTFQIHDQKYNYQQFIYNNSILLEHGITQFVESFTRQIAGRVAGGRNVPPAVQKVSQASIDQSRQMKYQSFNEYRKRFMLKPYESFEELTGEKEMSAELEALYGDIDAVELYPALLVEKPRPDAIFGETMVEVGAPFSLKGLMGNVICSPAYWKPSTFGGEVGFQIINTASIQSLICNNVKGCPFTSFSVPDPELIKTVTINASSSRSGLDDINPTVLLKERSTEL
# [8] = test system: NF-κB pathway; details: lipopolysaccharide (LPS)-induced macrophages; cited from earlier work
structure (smiles),measurement,setting,value
"C=CCc1ccc(O)c(O)c1 [Compound 1, 4-allyl-benzene-1,2-diol]",OVA specific IgE levels in sera,[1],significantly reduced the OVA specific IgE levels in sera
same,OVA specific IgE levels in sera,[1]; listed as compound of formula I,significant reduction
same,predicted acute oral LD50,[2],168 mg/kg
same,in vivo acute oral LD50,[3],268 mg/kg bw
same,cage side observation,[4],All the animals appeared normal
same,feed and water consumption,[4],comparable to sham controls
same,necropsy findings in vital organs,[4],no gross or microscopic lesion
same,mortality,"[4]; 47 mg/kg, 90 d",on the 11th weekend it died
same,"Activities of AST, ALT and gammaGT enzymes vs normal range",[5],within the normal range
same,Bilirubin,[5]; 12 mg/kg,0.91 ± 0.47 mg/dL
same,Creatinine,[5]; 12 mg/kg,1.03 ± 0.48 mg/dL
same,GOT/AST,[5]; 12 mg/kg,12.25 ± 2.18 U/L
same,GPT/ALT,[5]; 12 mg/kg,8.56 ± 3.79 U/L
same,Glucose,[5]; 12 mg/kg,79.89 ± 22.82 mg/dL
same,LDH,[5]; 12 mg/kg,175.3 ± 18 U/L
same,Total protein,[5]; 12 mg/kg,8.63 ± 1.81 g/dL
same,Uric acid,[5]; 12 mg/kg,6.05 ± 3.9 mg/dL
same,gammaGT,[5]; 12 mg/kg,12.73 ± 6.74 U/L
same,Bilirubin,[5]; 23 mg/kg,0.37 ± 012 mg/dL
same,Creatinine,[5]; 23 mg/kg,1.10 ± 0.65 mg/dL
same,GOT/AST,[5]; 23 mg/kg,13.56 ± 6.88 U/L
same,GPT/ALT,[5]; 23 mg/kg,12.84 ± 7.9 U/L
same,Glucose,[5]; 23 mg/kg,61.66 ± 13.08 mg/dL
same,LDH,[5]; 23 mg/kg,198.6 ± 27 U/L
same,Total protein,[5]; 23 mg/kg,6.52 ± 2.61 g/dL
same,Uric acid,[5]; 23 mg/kg,7.15 ± 0.62 mg/dL
same,gammaGT,[5]; 23 mg/kg,15.29 ± 5.38 U/L
same,Bilirubin,[5]; 47 mg/kg,0.54 ± 0.39 mg/dL
same,Creatinine,[5]; 47 mg/kg,1.36 ± 0.56 mg/dL
same,GOT/AST,[5]; 47 mg/kg,5.30 ± 1.55 U/L
same,GPT/ALT,[5]; 47 mg/kg,5.71 ± 9.89 U/L
same,Glucose,[5]; 47 mg/kg,86.42 ± 6.39 mg/dL
same,LDH,[5]; 47 mg/kg,210.5 ± 25 U/L
same,Total protein,[5]; 47 mg/kg,7.78 ± 1.37 g/dL
same,Uric acid,[5]; 47 mg/kg,5.59 ± 1.26 mg/dL
same,gammaGT,[5]; 47 mg/kg,15.66 ± 2.63 U/L
same,COX-1 inhibition,[6],potent COX-1/COX-2 inhibitor
same,COX-2 inhibition,[7],potent COX-1/COX-2 inhibitor
same,NF-κB pathway,[8],inhibited NF-κB pathway
